According to patent US11932872B2, “Dual chimeric antigen receptor-t cell which can be regulated, construction method therefor and use thereof” (NANJING ANJI BIOLOGICAL TECHNOLOGY CO., LTD, priority 2017, dated 2024):
Ends that are not written are not given here.

Key:
[1] = system: MSLN+K562 target cells (mixed 1:1 with CEA+K562); test: Cytotoxicity test of sdCAR-T cells in vitro; type: cell-based, human; conditions: for percentage content of homologous target cells MSLN+K562 (green fluorescence): fluorescence detection, versus beginning of the test
Description: The cytotoxicity of sdCAR-T cells was determined according to the survival rate of target cells (MSLN^+K562). The selected target cells were equal mixed cells of MSLN and CEA. […] The survival rate of MSLN target cells in each test group was calculated according to the following formula, and then the tumor killing ability of the constructed CARs-T cells in vitro could be analyzed.
1) Effector cells and mixed target cells (MSLN^+K562:CEA^+K562, 1:1) were co-incubated at a ratio of 5:2 in a U-shaped 96-well plate, RPMI1640 (10% FBS) was selected as a co-culture medium, and corresponding switching molecule s were added.
2) Culturing at 37° C. for 22 h with 5% CO2.
3) The ratio of MSLN and CEA tumor cells in each test group was detected by a flow cytometer, and then the survival rate of MSLN target cells was calculated.

[2] = system: MSLN+K562 cells (mixed 1:1 with CEA+K562); test: Time regulation of in vitro activity of sdCAR-T cells by exogenous switching molecules; type: cell-based, human; conditions: switching molecule added at 4 h, sampled every 2 h, effector:target 5:2
Description: This example verified that the killing activity of the sdCAR-T cells on tumor cells was subjected to time regulation by the switching molecules, and the selected target cells were MSLN single positive tumor cells and single positive tumor cells of negative control CEA. In the 14-hour test, the cytotoxicity of sdCAR-T cells was tested in real time with and without switching molecules. A total of four test groups were designed, each group had three parallel wells, and the design of test group was the same as that of Example 6.
1) Effector cells and mixed target cells (MSLN^+K562:CEA^+K562, 1:1) were co-incubated at a ratio of 5:2 in a 6-well plate, RPMI1640 (containing 10% FBS) was selected as a co-culture medium, cultured at 37° C. with 5% CO2.
2) 100 μL of cell suspension was taken every 2 h as the culturing begins at the 0 h.
3) Corresponding switching molecules were added at the 4 h.
4) Co-culturing for 10 h (that is, cell suspension was taken 6 times); after the culture, the ratio of MSLN and CEA tumor cells in each test group was detected by a flow cytometer, and then the survival rate of MSLN target cells was calculated.

[3] = system: MSLN+K562 cells (mixed equally with CEA+K562 cells, intraperitoneal); test: Tumor killing test by sdCAR-T cells in vivo; design: species or system nude mice BALB/c; conditions: nude mice; for in vivo cytokine (IL-2 and IFNγ) release level / in vivo cytokine (IL-2 and IFNγ) release level compared with Conventional CAR-T cell group: abdominal cavity fluid supernatant; for in vivo cytotoxicity of sdCAR-T cells: intraperitoneal tumor cells, abdominal cavity fluid by flow cytometry
Description: Female nude mice BALB/c which were 6-8 weeks old were selected, MSLN^+K562 cells and CEA^+K562 cells were mixed equally and injected intraperitoneally into the nude mice, and then corresponding effector cells and switching molecules were added respectively. Refer to FIG. 19 for details of the in vivo test process. Six test groups were designed, with 6 nude mice in each group. Specific solutions are as follows:
group 1: effector cells are T cells (No CAR) and no switching molecules are added;
group 2: effector cells are the second generation of CAR-T cells (Conventional CAR) specific to MSLN, and no switching molecules are added;
group 3: effector cells are sdCAR-T cells and no switching molecules are added;
group 4: effector cells are sdCAR-T cells, and small molecule HM-3 is added;
group 5: effector cells are sdCAR-T cells and switching molecule FITC is added; and
After the test was completed, the nude mice were euthanized, and then 5 mL of pre-cooled PBS was injected into the abdominal cavities of the nude mice. After the abdominal cavities of the nude mice were rubbed many times, the abdominal cavity fluid was sucked out completely, and centrifuged at a centrifugal force of 800 g for 8 min. The cells were collected, and the percentage of the two tumor cells was measured by flow cytometry, and then the in vivo activity of sdCAR-T cells could be calculated. In addition, the above centrifuged supernatant was collected to measure the release levels of cytokines IL-2 and IFNγ respectively.

K562 tumor cells = test: Killing curve of K562 tumor cells by puromycin / hygromycin; type: cell-based; conditions: 5 consecutive days
Description: 1) Low-generation cell strains were resuscitated from liquid nitrogen, and subjected to conventional culture and passaged 5 times, then the cell state was adjusted to a logarithmic growth period.
2) A new 24-well plate was prepared, 50000 K562 tumor cells were inoculated per well for 7 wells in total, and 500 μL of complete culture medium (RPMI1640, 10% FBS) was added per well. The well plate was placed in an incubator at 37° C. with 5% CO2 and cultured overnight.
3) The cell well plate was taken out from the incubator, one well was left free of puromycin, and puromycin with final concentrations of 0.5, 1, 2, 4, and 8 μg/mL were added to the remaining wells respectively.
4) The well plate was placed in an incubator at 37° C. with 5% CO2 for continuous cultivation. The state of cells in the well plate was observed under a microscope every day for 5 consecutive days. And the minimum concentration that can completely kill all cells on the fifth day was taken as the puromycin concentration for subsequent stable cell strain screening.
The method is the same as that of Example 3.4. The concentration gradient of the hygromycin was set to 50, 100, 200, 400 and 800 μg/mL respectively, and the concentration of the hygromycin was finally selected to be 100 μg/mL through the determination of the killing curve.

Molecule | survival rate of MSLN tumor cells ([1]; effector:mixed target cells 5:2, 22 h, flow cytometry) | percentage content of homologous target cells MSLN+K562 (green fluorescence) [1] | cytotoxicity of sdCAR-T cells after addition of switching molecule [2] | in vivo cytokine (IL-2 and IFNγ) release level [3] | in vivo cytokine (IL-2 and IFNγ) release level compared with Conventional CAR-T cell group [3] | in vivo cytotoxicity of sdCAR-T cells [3] | minimum concentration that can completely kill all cells on the fifth day (concentration selected from the killing curve) (K562 tumor cells) | in vivo cytotoxicity of FHBM treatment group compared with FITC treatment group ([3]; sdCAR-T cells plus switching molecule)
O=C1OC2(c3ccc(O)cc3Oc3cc(O)ccc32)c2ccc(N=C=S)cc21 [FITC] | about 30.98% | significantly lower than that at the beginning of the test | significant cytotoxicity | release significant cytokine levels | only half of the level | significant cytotoxicity |  | 
COc1ccc(C[C@H](N)C(=O)N[C@H]2[C@@H](O)[C@H](n3cnc4c(N(C)C)ncnc43)O[C@@H]2CO)cc1 [puromycin] |  |  |  |  |  |  | 1 µg/mL | 
FHBM: FITC and polypeptide HM-3 coupled to form a bifunctional small molecule; exogenous switching molecule for sdCAR-T cells (IVRRADRAAVPGGGGRGD; also: FITC coupled to HM-3, site not given here) |  | significantly lower than that at the beginning of the test | significant cytotoxicity | release significant cytokine levels | only half of the level | significant cytotoxicity |  | better than that of the FITC treatment group
